Several values for one entry are separate records, joined by “and”; a condition that tells them apart may be missing. Equal entries are not always repeated.
System: lysyl oxidase family members in KPC CAFs
Assay: qRT-PCR of lysyl oxidase family members after treatment (Extended Data Figs. 2d, 3h)
Format: cell-based, mouse
Parameters: qRT-PCR LOX (Ct) / qRT-PCR LOX ΔCt / qRT-PCR LOX ΔΔCt KPC CAF / qRT-PCR LOXL1 ΔCt / qRT-PCR LOXL1 ΔΔCt KPC CAF / qRT-PCR LOXL2 ΔCt / qRT-PCR LOXL2 ΔΔCt KPC CAF / qRT-PCR LOXL3 ΔCt / qRT-PCR LOXL3 ΔΔCt KPC CAF / qRT-PCR LOXL4 ΔCt / qRT-PCR LOXL4 ΔΔCt KPC CAF: dose or concentration left out as unconfirmed
Procedure: RNA was isolated using the RNeasy mini kit (QIAGEN) according to the manufacturer’s instructions. Then, 1 μg of RNA was reverse transcribed using the Transcriptor First Strand cDNA Synthesis kit (Roche LifeScience) with anchored-oligo(dT)18 primers or the QuantiTect Reverse Transcription kit (QIAGEN). Real-time PCR was performed using the Roche LightCycler480 (Roche LifeScience) or QuantStudio 7 (Thermo Fisher). The following probe sets from Applied Biosystems, were used: LOX, Mm00495386; LOXL1, Mm01145738; LOXL2, Mm00804740; LOXL3, Mm01184867; LOXL4, Mm00446385; and GAPDH, Mm99999915. Primers and Roche Universal Probe Library probes used for RT–qPCR are described in Supplementary Table 4. Relative mRNA expression levels for each transcript of interest were normalized to GAPDH or ACTB (as indicated) and quantified using the comparative double ΔCt method (unless stated otherwise) for each biological replicate.
Extended Data Fig. 2 Characterization of cells derived from the KPC autochthonous model. a. Immunofluorescence staining of KPC CCs and KPC CAFs for the pancreatic epithelial cell marker CDH1 (green), DAPI (blue) and for the CAF marker α-SMA (yellow), DAPI (blue). Representative images from n = 3 biological independent samples. Scale bar = 30 μm. b. RNAseq reads for CAF and epithelial cell makers in KPC CAFs n = 3 biological independent samples. […] Data is presented as mean values ± SEM. […] Data presented as mean values +/− SD. […] Source data
Data presented as mean values +/− SD. f. […] Data presented as mean values +/− SD. […] Data presented as mean values +/− SD. […] Data presented as mean values +/− SD. Ordinary one-way ANOVA for multiple comparison test performed. Source data

[1] = 48 hour treatment, 30 M PXS-5505, replicates
[2] = 48 hour treatment, PXS-5505, replicates
[3] = 48 hour treatment, PXS-5505, vs GAPDH, replicates
[4] = 50 nM gemcitabine, 48 hours, per replicate
[5] = 50 nM gemcitabine, 48 hours, vs GAPDH, per replicate

Compound: Cl.Cl.NC/C=C(\F)CS(=O)(=O)c1cccc2cccnc12.O [PXS-5505, (Z)-3-fluoro-4-(quinolin-8-ylsulfonyl)but-2-en-1-amine dihydrochloride monohydrate]
- qRT-PCR LOXL1 (Ct) [1]: 27.9242 and 27.0668
- qRT-PCR LOXL2 (Ct) [1]: 25.5976 and 25.3053 and 25.9273
- qRT-PCR LOXL3 (Ct) [1]: 27.0409 and 26.0554 and 26.3059
- qRT-PCR LOXL4 (Ct) [1]: 27.6755 and 27.1763 and 27.4097
- qRT-PCR LOX (Ct) [2]: 27.9362 and 27.041 and 26.9697
- qRT-PCR LOX ΔΔCt KPC CAF [2]: 0.4495 and 1.003 and 0.5566
- qRT-PCR LOXL1 ΔΔCt KPC CAF [2]: 0.5108 and 0.4889 and 0.4223
- qRT-PCR LOXL2 ΔΔCt KPC CAF [2]: 0.6912 and 0.4472 and 0.4586
- qRT-PCR LOXL3 ΔΔCt KPC CAF [2]: 0.6435 and 0.6732 and 0.893
- qRT-PCR LOXL4 ΔΔCt KPC CAF [2]: 1.222 and 0.9127 and 1.225
- qRT-PCR LOX ΔCt [3]: 9.054 and 7.896 and 8.745
- qRT-PCR LOXL1 ΔCt [3]: 8.779 and 8.842
- qRT-PCR LOXL2 ΔCt [3]: 6.453 and 7.081 and 7.045
- qRT-PCR LOXL3 ΔCt [3]: 7.896 and 7.831 and 7.423
- qRT-PCR LOXL4 ΔCt [3]: 8.531 and 8.952 and 8.527
- transcription of lysyl oxidase family members (PXS-5505 up to 300 µM): does not significantly alter transcription

Compound: Nc1ccn([C@@H]2O[C@H](CO)[C@@H](O)C2(F)F)c(=O)n1 [Gem, gemcitabine]
- expression of lysyl oxidase family members (50 nM gemcitabine for 48 hours): increased
- LOX ΔΔCt CC [4]: 1.655 and 2.327 and 2.145
- LOXL1 ΔΔCt CC [4]: 1.866 and 1.895 and 1.813
- LOXL2 ΔΔCt CC [4]: 2.3261 and 2.2233 and 1.33
- LOXL3 ΔΔCt CC [4]: 1.66 and 2.86 and 2.05
- LOXL4 ΔΔCt CC [4]: 2.014 and 1.617 and 1.18
- LOX ΔCt [5]: 6.157 and 5.668 and 5.782
- LOXL1 ΔCt [5]: 8.043 and 8.021 and 8.085
- LOXL2 ΔCt [5]: 4.354 and 4.419 and 5.16
- LOXL3 ΔCt [5]: 4.977 and 5.26 and 5.74
- LOXL4 ΔCt [5]: 6.2696 and 6.5867 and 7.04
